Values of other authors as cited in patent US6365128B1, “Monitoring gastrointestinal function to guide care of high risk patients” (Medical Defence Technologies, LLC, priority 1998, dated 2002).

Conditions: in vivo

Structure (SMILES): CSCC[C@H](NC(=O)[C@H](Cc1c[nH]c2ccccc12)NC(=O)CCNC(=O)OC(C)(C)C)C(=O)N[C@@H](CC(=O)O)C(=O)N[C@@H](Cc1ccccc1)C(N)=O [Pentagastrin, pentagastrin]
- half life: approximately 10 minutes
